Experimental data taken from PMC5601486, “Identification of 4-phenylquinolin-2(1H)-one as a specific allosteric inhibitor of Akt” (Scientific Reports, 2017).
Entries after “also recorded” stand apart in the source; their conditions may differ.

Assays:
activated Akt = assay: Substrate peptide phosphorylation by activated Akt (ELISA-based); assay type: biochemical; details: 20 µM G7, ATP and substrate peptide
HCK = assay: KINOMEscan; details: 50000 nM
Protocol: KINOMEscan™ selectivity screen
(§1) Briefly, Kinase-tagged T7 phage strains were grown in parallel in an E. coli host derived from the BL21 strain. E. coli were grown to log-phase and infected with T7 phage from a frozen stock and incubated with shaking at 32°C until lysis (90-150 minutes). The kinases were produced in HEK-293 cells and subsequently tagged with DNA for qPCR detection. Streptavidin-coated magnetic beads were treated with biotinylated small molecule ligands to generate affinity resins for kinase
(§2) inhibitor or DMSO control was performed in polypropylene 384-well plates for 1 hr at room temperature. After wash with PBS buffer containing 0.05% Tween 20, the beads were incubated in elution buffer (PBS containing 0.05 % Tween 20 and 0.5 μM non-biotinylated affinity ligand) for 30 minutes at room temperature. The kinase concentration in the eluates was measured by qPCR.

MAP3K4 = assay: KINOMEscan; details: 50000 nM
Protocol: KINOMEscan™ selectivity screen
(§3) The assay was perfor med at DiscoveRx Corporation according the methods published previously5. Briefly, Kinase-tagged T7 phage strains were grown in parallel in an E. coli host derived from the BL21 strain. E. coli were grown to log-phase and infected with T7 phage from a frozen stock and incubated with shaking at 32°C until lysis (90-150 minutes). The kinases were produced in HEK-293 cells and subsequently tagged with DNA for qPCR detection. Streptavidin-coated magnetic beads were treated with biotinylated small molecule ligands to generate affinity resins for kinase
as §2

PIK3CD = assay: KINOMEscan; details: 50000 nM
Protocol: KINOMEscan™ selectivity screen
as §3, §2

SgK110 = assay: KINOMEscan; details: 50000 nM
Protocol: KINOMEscan™ selectivity screen
as §3, §2

LIMK2 = assay: KINOMEscan; details: 50000 nM
Protocol: KINOMEscan™ selectivity screen
as §3, §2

MET(M1250T) = assay: KINOMEscan; details: 50000 nM
Protocol: KINOMEscan™ selectivity screen
The assay was perfor med at DiscoveRx Corporation according the methods published previously5. […] The kinases were produced in HEK-293 cells and subsequently tagged with DNA for qPCR detection. Streptavidin-coated magnetic beads were treated with biotinylated small molecule ligands to generate affinity resins for kinase
as §2

LTK = assay: KINOMEscan; details: 50000 nM
Protocol: KINOMEscan™ selectivity screen
as §3, §2

RAF1 = assay: KINOMEscan; details: 50000 nM
Protocol: KINOMEscan™ selectivity screen
as §3, §2

EPHB2 = assay: KINOMEscan; details: 50000 nM
Protocol: KINOMEscan™ selectivity screen
as §3, §2

YES = assay: KINOMEscan; details: 50000 nM
Protocol: KINOMEscan™ selectivity screen
as §3, §2

[1] = system: RPS6KA4(Kin.Dom.2-C-terminal); assay: KINOMEscan; details: 50000 nM
Protocol: KINOMEscan™ selectivity screen
as §3, §2

EGFR = assay: KINOMEscan; details: 50000 nM
Protocol: KINOMEscan™ selectivity screen
as §3, §2

FRK = assay: KINOMEscan; details: 50000 nM
Protocol: KINOMEscan™ selectivity screen
as §3, §2

LYN = assay: KINOMEscan; details: 50000 nM
Protocol: KINOMEscan™ selectivity screen
as §3, §2

LATS1 = assay: KINOMEscan; details: 50000 nM
Protocol: KINOMEscan™ selectivity screen
as §3, §2

OSR1 = assay: KINOMEscan; details: 50000 nM
Protocol: KINOMEscan™ selectivity screen
as §1, §2

DRAK2 = assay: KINOMEscan; details: 50000 nM
Protocol: KINOMEscan™ selectivity screen
as §3, §2

CDK8 = assay: KINOMEscan; details: 50000 nM
Protocol: KINOMEscan™ selectivity screen
as §3, §2

KIT(D816H) = assay: KINOMEscan; details: 50000 nM
Protocol: as §1, §2

BRSK2 = assay: KINOMEscan; details: 50000 nM
Protocol: KINOMEscan™ selectivity screen
as §3, §2

LOK = assay: KINOMEscan; details: 50000 nM
Protocol: KINOMEscan™ selectivity screen
as §3, §2

PDPK1 = assay: KINOMEscan; details: 50000 nM
Protocol: KINOMEscan™ selectivity screen
as §3, §2

DLK = assay: KINOMEscan; details: 50000 nM
Protocol: KINOMEscan™ selectivity screen
as §3, §2

KIT-autoinhibited = assay: KINOMEscan; details: 50000 nM
Protocol: KINOMEscan™ selectivity screen
as §3, §2

CTK = assay: KINOMEscan; details: 50000 nM
Protocol: KINOMEscan™ selectivity screen
as §1, §2

GSK3B = assay: KINOMEscan; details: 50000 nM
Protocol: KINOMEscan™ selectivity screen
as §1, §2

JNK2 = assay: KINOMEscan; details: 50000 nM
Protocol: KINOMEscan™ selectivity screen
as §3, §2

[2] = system: ABL1(H396P)-nonphosphorylated; assay: KINOMEscan; details: 50000 nM
Protocol: KINOMEscan™ selectivity screen
as §3, §2

FLT3-autoinhibited = assay: KINOMEscan; details: 50000 nM
Protocol: KINOMEscan™ selectivity screen
as §3, §2

PDGFRA = assay: KINOMEscan; details: 50000 nM
Protocol: KINOMEscan™ selectivity screen
as §3, §2

## Oc1cc(-c2ccccc2)c2ccccc2n1 [G7, 4-phenylquinolin-2(1H)-one]
Activated Akt
  effect on phosphorylation capability of activated Akt: No effects; also recorded: only negligible change
HCK
  Percent Control: 100%
MAP3K4
  Percent Control: 100%
PIK3CD
  Percent Control: 100%
SgK110
  Percent Control: 100%
LIMK2
  Percent Control: 97%
MET(M1250T)
  Percent Control: 96%
LTK
  Percent Control: 95%
RAF1
  Percent Control: 95%
EPHB2
  Percent Control: 93%
YES
  Percent Control: 93%
[1]
  Percent Control: 92%
EGFR
  Percent Control: 89%
FRK
  Percent Control: 89%
LYN
  Percent Control: 88%
LATS1
  Percent Control: 87%
OSR1
  Percent Control: 87%
DRAK2
  Percent Control: 86%
CDK8
  Percent Control: 85%
KIT(D816H)
  Percent Control: 84%
BRSK2
  Percent Control: 82%
LOK
  Percent Control: 82%
PDPK1
  Percent Control: 81%
DLK
  Percent Control: 78%
KIT-autoinhibited
  Percent Control: 77%
CTK
  Percent Control: 74%
GSK3B
  Percent Control: 68%
JNK2
  Percent Control: 68%
[2]
  Percent Control: 62%
FLT3-autoinhibited
  Percent Control: 54%
PDGFRA
  Percent Control: 52%
